Assays:
[1] = test system: HCV genotype 1b (Con1) replicon in HUH-7 cells; assay: HCV replicon luciferase reporter assay, genotype 1b; format: cell-based; conditions: Hepatitis C virus, Huh-7, 72 h, HCV genotype 1b replicon luciferase assay, 3 days incubation, range class, read-out: LE_1b (EC50, range)
In short: (§1)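 Replicon inhibition for both genotypes was measured as Renilla luciferase signal (EnduRen, 7.5 μM final, 2 h) after 3-day, 37° C exposure of replicon-bearing HUH-7 cells in 4% FCS DMEM, 0.5% DMSO. The 1b construct carries S1179I; the 1a H77 construct carries P1496L and S2204I. Twenty-point, 3-fold dilutions were fitted four-parametrically for EC50, and CC50 was taken from multiplexed Cell Titer-Blue.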

[2] = test system: HCV genotype 1a (H77 strain) replicon in HUH-7 cells; assay: HCV replicon luciferase reporter assay, genotype 1a; format: cell-based; conditions: Hepatitis C virus, Huh-7, 72 h, HCV genotype 1a replicon luciferase assay, 3 days incubation, range class, read-out: LE_1a (EC50, range)
In short: as §1

Row | SMILES | EC50 [1] | EC50 [2]
1 | CC(C)Oc1cc2c(Cl)cccc2c(O[C@@H]2C[C@H]3C(=O)N[C@]4(C(=O)NS(=O)(=O)C5(C)CC5)C[C@H]4/C=C\CC[C@@H](C)C[C@@H](C)[C@H](NC(=O)OC(C)(C)C(F)(F)F)C(=O)N3C2)n1 [Compound 1102, 1,1,1-trifluoro-2-methylpropan-2-yl((2R,6S,7R,9R,13aS,14aR,16aS,Z)-2-((5-chloro-3-isopropoxyisoquinolin-1-yl)oxy)-7,9-dimethyl-14a-(((1-methylcyclopropyl)sulfonyl)carbamoyl)-5,16-dioxo-1,2,3,5,6,7,8,9,10,11,13a,14,14a,15,16,16a-hexadecahydrocyclopropa[e]pyrrolo[1,2-a][1,4]diazacyclopentadecin-6-yl)carbamate] | < 5.46 nM | < 5.46 nM
2 | CC(C)Oc1cc2c(Cl)cccc2c(O[C@@H]2C[C@H]3C(=O)N[C@]4(C(=O)NS(=O)(=O)C5(C)CC5)C[C@H]4/C=C\CC[C@H](C)C[C@@H](C)[C@H](NC(=O)OC(C)(C)C(C)(F)F)C(=O)N3C2)n1 [Compound 1103, 3,3-difluoro-2-methylbutan-2-yl((2R,6S,7R,9S,13aS,14aR,16aS,Z)-2-((5-chloro-3-isopropoxyisoquinolin-1-yl)oxy)-7,9-dimethyl-14a-(((1-methylcyclopropyl)sulfonyl)carbamoyl)-5,16-dioxo-1,2,3,5,6,7,8,9,10,11,13a,14,14a,15,16,16a-hexadecahydrocyclopropa[e]pyrrolo[1,2-a][1,4]diazacyclopentadecin-6-yl)carbamate] | < 5.46 nM | 4.82 to 103 nM
3 | CC(C)Oc1cc2c(Cl)cccc2c(O[C@@H]2C[C@H]3C(=O)N[C@]4(C(=O)NS(=O)(=O)C5(C)CC5)C[C@H]4/C=C\CC[C@@H](C)C[C@@H](C)[C@H](NC(=O)OC(C)(C)C(C)(F)F)C(=O)N3C2)n1 [Compound 1104, 3,3-difluoro-2-methylbutan-2-yl((2R,6S,7R,9R,13aS,14aR,16aS,Z)-2-((5-chloro-3-isopropoxyisoquinolin-1-yl)oxy)-7,9-dimethyl-14a-(((1-methylcyclopropyl)sulfonyl)carbamoyl)-5,16-dioxo-1,2,3,5,6,7,8,9,10,11,13a,14,14a,15,16,16a-hexadecahydrocyclopropa[e]pyrrolo[1,2-a][1,4]diazacyclopentadecin-6-yl)carbamate] | < 5.46 nM | < 5.46 nM
4 | CC(C)Oc1cc2c(Cl)cccc2c(O[C@@H]2C[C@H]3C(=O)N[C@]4(C(=O)NS(=O)(=O)C5CC5)C[C@H]4/C=C\CC[C@H](C)C[C@@H](C)[C@H](NC(=O)OC(C)(C)C(C)(F)F)C(=O)N3C2)n1 [Compound 1105, 3,3-difluoro-2-methylbutan-2-yl((2R,6S,7R,9S,13aS,14aR,16aS,Z)-2-((5-chloro-3-isopropoxyisoquinolin-1-yl)oxy)-14a-((cyclopropylsulfonyl)carbamoyl)-7,9-dimethyl-5,16-dioxo-1,2,3,5,6,7,8,9,10,11,13a,14,14a,15,16,16a-hexadecahydrocyclopropa[e]pyrrolo[1,2-a][1,4]diazacyclopentadecin-6-yl)carbamate] | < 5.46 nM | < 5.46 nM
5 | CC(C)Oc1cc2c(Cl)cccc2c(O[C@@H]2C[C@H]3C(=O)N[C@]4(C(=O)NS(=O)(=O)C5CC5)C[C@H]4/C=C\CC[C@@H](C)C[C@@H](C)[C@H](NC(=O)OC(C)(C)C(C)(F)F)C(=O)N3C2)n1 [Compound 1106, 3,3-difluoro-2-methylbutan-2-yl((2R,6S,7R,9R,13aS,14aR,16aS,Z)-2-((5-chloro-3-isopropoxyisoquinolin-1-yl)oxy)-14a-((cyclopropylsulfonyl)carbamoyl)-7,9-dimethyl-5,16-dioxo-1,2,3,5,6,7,8,9,10,11,13a,14,14a,15,16,16a-hexadecahydrocyclopropa[e]pyrrolo[1,2-a][1,4]diazacyclopentadecin-6-yl)carbamate] | < 5.46 nM | < 5.46 nM
6 | C[C@H]1CC/C=C\[C@@H]2C[C@@]2(C(=O)NS(=O)(=O)C2(C)CC2)NC(=O)[C@@H]2C[C@@H](Oc3nc(OCC(F)F)cc4c(Cl)cccc34)CN2C(=O)[C@@H](NC(=O)O[C@H](C)C(F)(F)F)[C@H](C)C1 [Compound 1107, (R)-1,1,1-trifluoropropan-2-yl ((2R,6S,7R,9S,13aS,14aR,16aS,Z)-2-((5-chloro-3-(2,2-difluoroethoxyl)isoquinolin-1-yl)oxy)-7,9-dimethyl-14a-(((1-methylcyclopropyl)sulfonyl)carbamoyl)-5,16-dioxo-1,2,3,5,6,7,8,9,10,11,13a,14,14a,15,16,16a-hexadecahydrocyclopropa[e]pyrrolo[1,2-a][1,4]diazacyclopentadecin-6-yl)carbamate] | < 5.46 nM | 4.82 to 103 nM
7 | C[C@@H]1CC/C=C\[C@@H]2C[C@@]2(C(=O)NS(=O)(=O)C2(C)CC2)NC(=O)[C@@H]2C[C@@H](Oc3nc(OCC(F)F)cc4c(Cl)cccc34)CN2C(=O)[C@@H](NC(=O)O[C@H](C)C(F)(F)F)[C@H](C)C1 [Compound 1108, (R)-1,1,1-trifluoropropan-2-yl ((2R,6S,7R,9R,13aS,14aR,16aS,Z)-2-((5-chloro-3-(2,2-difluoroethoxyl)isoquinolin-1-yl)oxy)-7,9-dimethyl-14a-(((1-methylcyclopropyl)sulfonyl)carbamoyl)-5,16-dioxo-1,2,3,5,6,7,8,9,10,11,13a,14,14a,15,16,16a-hexadecahydrocyclopropa[e]pyrrolo[1,2-a][1,4]diazacyclopentadecin-6-yl)carbamate] | < 5.46 nM | < 5.46 nM
8 | C[C@@H]1CC/C=C\[C@@H]2C[C@@]2(C(=O)NS(=O)(=O)C2(C)CC2)NC(=O)[C@@H]2C[C@@H](Oc3nc(OCC(F)F)cc4c(Cl)cccc34)CN2C(=O)[C@@H](NC(=O)OC(C)(C)C(C)(F)F)[C@H](C)C1 [Compound 1110, 3,3-difluoro-2-methylbutan-2-yl((2R,6S,7R,9R,13aS,14aR,16aS,Z)-2-((5-chloro-3-(2,2-difluoroethoxyl)isoquinolin-1-yl)oxy)-7,9-dimethyl-14a-(((1-methylcyclopropyl)sulfonyl)carbamoyl)-5,16-dioxo-1,2,3,5,6,7,8,9,10,11,13a,14,14a,15,16,16a-hexadecahydrocyclopropa[e]pyrrolo[1,2-a][1,4]diazacyclopentadecin-6-yl)carbamate] | < 5.46 nM | < 5.46 nM
9 | C[C@H]1CC/C=C\[C@@H]2C[C@@]2(C(=O)NS(=O)(=O)C2CC2)NC(=O)[C@@H]2C[C@@H](Oc3nc(OCC(F)F)cc4c(Cl)cccc34)CN2C(=O)[C@@H](NC(=O)OC(C)(C)C(C)(F)F)[C@H](C)C1 [Compound 1111, 3,3-difluoro-2-methylbutan-2-yl((2R,6S,7R,9S,13aS,14aR,16aS,Z)-2-((5-chloro-3-(2,2-difluoroethoxyl)isoquinolin-1-yl)oxy)-14a-((cyclopropylsulfonyl)carbamoyl)-7,9-dimethyl-5,16-dioxo-1,2,3,5,6,7,8,9,10,11,13a,14,14a,15,16,16a-hexadecahydrocyclopropa[e]pyrrolo[1,2-a][1,4]diazacyclopentadecin-6-yl)carbamate] | < 5.46 nM | < 5.46 nM
10 | C[C@@H]1CC/C=C\[C@@H]2C[C@@]2(C(=O)NS(=O)(=O)C2CC2)NC(=O)[C@@H]2C[C@@H](Oc3nc(OCC(F)F)cc4c(Cl)cccc34)CN2C(=O)[C@@H](NC(=O)OC(C)(C)C(C)(F)F)[C@H](C)C1 [Compound 1112, 3,3-difluoro-2-methylbutan-2-yl((2R,6S,7R,9R,13aS,14aR,16aS,Z)-2-((5-chloro-3-(2,2-difluoroethoxyl)isoquinolin-1-yl)oxy)-14a-((cyclopropylsulfonyl)carbamoyl)-7,9-dimethyl-5,16-dioxo-1,2,3,5,6,7,8,9,10,11,13a,14,14a,15,16,16a-hexadecahydrocyclopropa[e]pyrrolo[1,2-a][1,4]diazacyclopentadecin-6-yl)carbamate] | < 5.46 nM | < 5.46 nM
11 | COCCOc1cc2c(Cl)cccc2c(O[C@@H]2C[C@H]3C(=O)N[C@]4(C(=O)NS(=O)(=O)C5(C)CC5)C[C@H]4/C=C\CC[C@H](C)C[C@@H](C)[C@H](NC(=O)OC(C)(C)C(F)(F)F)C(=O)N3C2)n1 [Compound 1113, 1,1,1-trifluoro-2-methylpropan-2-yl((2R,6S,7R,9S,13aS,14aR,16aS,Z)-2-((5-chloro-3-(2-methoxyethoxyl)isoquinolin-1-yl)oxy)-7,9-dimethyl-14a-(((1-methylcyclopropyl)sulfonyl)carbamoyl)-5,16-dioxo-1,2,3,5,6,7,8,9,10,11,13a,14,14a,15,16,16a-hexadecahydrocyclopropa[e]pyrrolo[1,2-a][1,4]diazacyclopentadecin-6-yl)carbamate] | < 5.46 nM | < 5.46 nM
12 | COCCOc1cc2c(Cl)cccc2c(O[C@@H]2C[C@H]3C(=O)N[C@]4(C(=O)NS(=O)(=O)C5(C)CC5)C[C@H]4/C=C\CC[C@H](C)C[C@@H](C)[C@H](NC(=O)OC(C)(C)C(C)(F)F)C(=O)N3C2)n1 [Compound 1115, 3,3-difluoro-2-methylbutan-2-yl((2R,6S,7R,9S,13aS,14aR,16aS,Z)-2-((5-chloro-3-(2-methoxyethoxyl)isoquinolin-1-yl)oxy)-7,9-dimethyl-14a-(((1-methylcyclopropyl)sulfonyl)carbamoyl)-5,16-dioxo-1,2,3,5,6,7,8,9,10,11,13a,14,14a,15,16,16a-hexadecahydrocyclopropa[e]pyrrolo[1,2-a][1,4]diazacyclopentadecin-6-yl)carbamate] | < 5.46 nM | < 5.46 nM

— patent publication US9499550B2 (BRISTOL-MYERS SQUIBB COMPANY, priority 2012, dated 2016)
